The results in this text go back to patent publication US20170334899A1, “AMINO-SUBSTITUTED ISOTHIAZOLES” (Bayer Pharma Aktiengesellschaft, priority 2014, published 2017).

Molecules are shown by their SMILES. pIC50: −log10 of the molar value.

In assay [1] the test system is human cervical tumor cell line HeLa (ATCC CCL-2). Kind of assay: SAC-Formation - Nocodazole-Induced Assay. In kind it is cell-based. The note with it: Homo sapiens, HeLa, 24 h, HeLa cells, nocodazole 0.1 μg/ml together with test compound, decrease of mitotic cells (phospho-histone H3 Ser10). The procedure, abridged: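 Loss of phospho-histone H3 Ser10-positive cells, counted against Hoechst-stained nuclei by high-content imaging, marked mitotic breakthrough. Compounds (0.005–20 μM, 0.5% DMSO) were co-dosed with 0.1 μg/ml nocodazole onto HeLa cells for 24 h at 37 °C. Curves were fitted with a four-parameter Hill equation.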

Assay [2] has as its system HeLa. Kind of assay: Proliferation assay (crystal violet), HeLa. The assay is classed as cell-based. The note with it: Homo sapiens, HeLa, 96 h, HeLa cells; 4 days incubation; crystal violet staining; read-out: IC50 inhibition of proliferation, HeLa. Put shortly: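 Absorbance at 595 nm of crystal-violet-stained cells after 4 days' exposure to 0.001–10 μM compound (0.5% DMSO). Values normalized to a day-0 plate (0%) and untreated cells (100%); IC50 by 4-parameter fit.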

Regarding `Cc1nsc(Nc2cncc(C(F)(F)F)n2)c1C(=O)Nc1ccc(F)c(C(N)=O)c1` [Example 204, N-(3-carbamoyl-4-fluorophenyl)-3-methyl-5-{[6-(trifluoromethyl)pyrazin-2-yl]amino}-1,2-thiazole-4-carboxamide], the results for the pIC50 in assay [1] and in assay [2] were 6.31 and less than 5.00, respectively.
